{
  "source": "paper PMC5218480",
  "about": "(PLoS ONE, 2017)",
  "test_system": "MV-4-11 cells",
  "experiment": "Gene expression microarray analysis (Affymetrix PrimeView) and GSEA",
  "format": "cell-based, human",
  "parameters": "RFU PODN (11730768_x_at) / Fold change /veh PODN (11730768_x_at) / RFU LINC00158 (11744669_a_at) / Fold change /veh LINC00158 (11744669_a_at) / RFU DUSP10 (11751237_a_at) / Fold change /veh DUSP10 (11751237_a_at) / RFU ID3 (11757404_x_at) / Fold change /veh ID3 (11757404_x_at) / RFU PLEKHG5 (11737974_s_at) / Fold change /veh PLEKHG5 (11737974_s_at) / RFU LRRC4B (11730491_at) / Fold change /veh LRRC4B (11730491_at) / RFU GIMAP4 (11747438_a_at) / Fold change /veh GIMAP4 (11747438_a_at) / RFU KRT8 (11758183_x_at) / Fold change /veh KRT8 (11758183_x_at) / RFU CNN1 (11734310_a_at) / Fold change /veh CNN1 (11734310_a_at) / RFU VPS37D (11726825_at) / Fold change /veh VPS37D (11726825_at) / RFU C10orf10 (11716522_x_at) / Fold change /veh C10orf10 (11716522_x_at) / RFU KIR2DL2 /// KIR2DL4 /// KIR2DL5A /// KIR2DL5B /// KIR2DS1 /// KIR2DS2 /// KIR2DS3 /// KIR2DS4 /// KIR3DL3 /// KIR3DL3 /// KIR3DS1 (11738374_at) / Fold change /veh KIR2DL2 /// KIR2DL4 /// KIR2DL5A /// KIR2DL5B /// KIR2DS1 /// KIR2DS2 /// KIR2DS3 /// KIR2DS4 /// KIR3DL3 /// KIR3DL3 /// KIR3DS1 (11738374_at) / RFU C1QL1 (11718748_at) / Fold change /veh C1QL1 (11718748_at) / RFU TMPRSS4 (11747572_a_at) / Fold change /veh TMPRSS4 (11747572_a_at) / RFU HAMP (11756126_x_at) / Fold change /veh HAMP (11756126_x_at) / RFU RNFT2 (11725882_a_at) / Fold change /veh RNFT2 (11725882_a_at) / RFU NR4A2 (11747474_a_at) / Fold change /veh NR4A2 (11747474_a_at) / RFU ABCC12 (11746883_a_at) / Fold change /veh ABCC12 (11746883_a_at) / RFU TMEM136 (11760407_x_at) / Fold change /veh TMEM136 (11760407_x_at) / RFU CLDN22 /// WWC2 (11732394_at) / Fold change /veh CLDN22 /// WWC2 (11732394_at) / RFU HLA-DPB1 (11760878_x_at) / Fold change /veh HLA-DPB1 (11760878_x_at) / RFU SPINT1 (11716480_a_at) / Fold change /veh SPINT1 (11716480_a_at) / RFU GAP43 (11754022_s_at) / Fold change /veh GAP43 (11754022_s_at) / RFU A4GNT (11735810_at) / Fold change /veh A4GNT (11735810_at) / RFU PRB3 (11715151_x_at) / Fold change /veh PRB3 (11715151_x_at) / RFU TUBB4B (11761932_at) / Fold change /veh TUBB4B (11761932_at) / RFU CAPN14 (11732068_a_at) / Fold change /veh CAPN14 (11732068_a_at) / RFU TMCC2 (11721928_a_at) / Fold change /veh TMCC2 (11721928_a_at) / RFU IRGQ (11745062_a_at) / Fold change /veh IRGQ (11745062_a_at) / RFU FAM174B (11720279_a_at) / Fold change /veh FAM174B (11720279_a_at) / RFU TMPRSS4 (11748680_a_at) / Fold change /veh TMPRSS4 (11748680_a_at) / RFU FAM212B (11763350_a_at) / Fold change /veh FAM212B (11763350_a_at) / RFU PLEKHG5 (11743358_a_at) / Fold change /veh PLEKHG5 (11743358_a_at) / RFU ZSCAN30 (11745921_a_at) / Fold change /veh ZSCAN30 (11745921_a_at) / RFU CMKLR1 (11741424_a_at) / Fold change /veh CMKLR1 (11741424_a_at) / RFU LOC101060620 /// MAPK8IP1 (11723275_at) / Fold change /veh LOC101060620 /// MAPK8IP1 (11723275_at) / RFU SPTSSB (11747773_x_at) / Fold change /veh SPTSSB (11747773_x_at) / RFU PRSS12 (11739890_at) / Fold change /veh PRSS12 (11739890_at) / RFU BIN1 (11741810_x_at) / Fold change /veh BIN1 (11741810_x_at) / RFU WNT11 (11732464_a_at) / Fold change /veh WNT11 (11732464_a_at) / RFU C10orf10 (11716521_a_at) / Fold change /veh C10orf10 (11716521_a_at) / RFU C5orf56 (11738089_at) / Fold change /veh C5orf56 (11738089_at) / RFU CYB561 (11721691_x_at) / Fold change /veh CYB561 (11721691_x_at) / RFU ANKRD19P (11752326_a_at) / Fold change /veh ANKRD19P (11752326_a_at) / RFU OR2T12 /// OR2T33 /// OR2T8 (11738714_s_at) / Fold change /veh OR2T12 /// OR2T33 /// OR2T8 (11738714_s_at) / RFU VCAN (11748164_a_at) / Fold change /veh VCAN (11748164_a_at) / RFU JSRP1 (11732532_at) / Fold change /veh JSRP1 (11732532_at) / RFU KRTAP10-11 (11738290_x_at) / Fold change /veh KRTAP10-11 (11738290_x_at) / RFU MYO3A (11730013_a_at) / Fold change /veh MYO3A (11730013_a_at) / RFU EBF3 (11725865_a_at) / Fold change /veh EBF3 (11725865_a_at) / RFU CAMK2N1 (11719241_x_at) / Fold change /veh CAMK2N1 (11719241_x_at) / RFU C5orf56 (11738088_a_at) / Fold change /veh C5orf56 (11738088_a_at) / RFU OLFML3 (11715873_a_at) / Fold change /veh OLFML3 (11715873_a_at) / RFU LOC100653217 /// NTM (11731650_a_at) / Fold change /veh LOC100653217 /// NTM (11731650_a_at) / RFU MAPK11 (11762145_a_at) / Fold change /veh MAPK11 (11762145_a_at) / RFU FIZ1 (11724087_x_at) / Fold change /veh FIZ1 (11724087_x_at) / RFU OASL (11726364_x_at) / Fold change /veh OASL (11726364_x_at) / RFU SOX15 (11748057_x_at) / Fold change /veh SOX15 (11748057_x_at) / RFU CD79A (11719716_a_at) / Fold change /veh CD79A (11719716_a_at) / RFU HIST1H1D (11736915_at) / Fold change /veh HIST1H1D (11736915_at) / RFU CASKIN2 (11723855_a_at) / Fold change /veh CASKIN2 (11723855_a_at) / RFU LOC730098 (11760151_x_at) / Fold change /veh LOC730098 (11760151_x_at) / RFU OR4N2 (11742367_at) / Fold change /veh OR4N2 (11742367_at) / RFU PRRT2 (11749266_a_at) / Fold change /veh PRRT2 (11749266_a_at) / RFU SNX32 (11753110_a_at) / Fold change /veh SNX32 (11753110_a_at) / RFU CDHR5 (11726645_a_at) / Fold change /veh CDHR5 (11726645_a_at) / RFU RCAN1 (11760418_a_at) / Fold change /veh RCAN1 (11760418_a_at) / RFU FAM167A (11723789_a_at) / Fold change /veh FAM167A (11723789_a_at) / RFU FAM26E (11764081_at) / Fold change /veh FAM26E (11764081_at) / RFU ISYNA1 (11749810_s_at) / Fold change /veh ISYNA1 (11749810_s_at) / RFU ACY1 (11761880_at) / Fold change /veh ACY1 (11761880_at) / RFU 11764098_at / Fold change /veh 11764098_at / RFU SAMD14 (11745864_x_at) / Fold change /veh SAMD14 (11745864_x_at) / RFU NPB (11741838_a_at) / Fold change /veh NPB (11741838_a_at) / RFU TMPRSS6 (11731388_a_at) / Fold change /veh TMPRSS6 (11731388_a_at) / RFU KRTAP10-2 (11738614_at) / Fold change /veh KRTAP10-2 (11738614_at) / RFU ARHGAP8 /// PRR5-ARHGAP8 (11727945_x_at) / Fold change /veh ARHGAP8 /// PRR5-ARHGAP8 (11727945_x_at) / RFU KRTAP5-7 /// NADSYN1 (11734609_at) / Fold change /veh KRTAP5-7 /// NADSYN1 (11734609_at) / RFU RASL12 (11751679_a_at) / Fold change /veh RASL12 (11751679_a_at) / RFU CDKN2B (11736163_a_at) / Fold change /veh CDKN2B (11736163_a_at) / RFU PRF1 (11729649_at) / Fold change /veh PRF1 (11729649_at) / RFU, ZNF638 /// ZNF638-IT1 / Fold change vs veh, ZNF638 /// ZNF638-IT1 / RFU, PANK3 / Fold change vs veh, PANK3 / RFU, SH3YL1 / Fold change vs veh, SH3YL1 / RFU, ZEB2 / Fold change vs veh, ZEB2 / RFU, NRIP1 / Fold change vs veh, NRIP1 / RFU, PTTG1IP / Fold change vs veh, PTTG1IP / RFU, CAPN2 / Fold change vs veh, CAPN2 / RFU, MED14 / Fold change vs veh, MED14 / RFU, SNORA58 / Fold change vs veh, SNORA58 / RFU, C1orf63 / Fold change vs veh, C1orf63 / RFU, LRRFIP1 / Fold change vs veh, LRRFIP1 / RFU, NDUFAF7 / Fold change vs veh, NDUFAF7 / RFU, SLC12A2 / Fold change vs veh, SLC12A2 / RFU, IBTK / Fold change vs veh, IBTK / RFU, ESF1 / Fold change vs veh, ESF1 / Fold change vs veh, TMEM50B / RFU, TAOK1 / Fold change vs veh, TAOK1 / RFU, ACBD3 / Fold change vs veh, ACBD3 / RFU, TMA16 / Fold change vs veh, TMA16 / RFU, RWDD3 / Fold change vs veh, RWDD3 / RFU, BCAT1 / Fold change vs veh, BCAT1 / RFU, EDEM3 / Fold change vs veh, EDEM3 / RFU, TMEM33 / Fold change vs veh, TMEM33 / RFU, WDR75 / Fold change vs veh, WDR75 / RFU, AHCTF1 / Fold change vs veh, AHCTF1 / RFU, TFRC / Fold change vs veh, TFRC / RFU, ZDHHC17 / Fold change vs veh, ZDHHC17 / RFU, NOM1 / Fold change vs veh, NOM1 / RFU, ARL8B / Fold change vs veh, ARL8B / RFU, ZBTB11 / Fold change vs veh, ZBTB11 / RFU, TAMM41 / Fold change vs veh, TAMM41 / RFU, KIAA1704 /// LOC100996395 / Fold change vs veh, KIAA1704 /// LOC100996395 / RFU, ING1 / Fold change vs veh, ING1 / RFU, TRMT61B / Fold change vs veh, TRMT61B / RFU, FUBP3 / Fold change vs veh, FUBP3 / RFU, TP53 / Fold change vs veh, TP53 / RFU, TNKS2 / Fold change vs veh, TNKS2 / RFU, ZFP14 / Fold change vs veh, ZFP14 / RFU, ACTR2 / Fold change vs veh, ACTR2 / RFU, PPP3R1 / Fold change vs veh, PPP3R1 / RFU, PIK3R1 / Fold change vs veh, PIK3R1 / RFU, HNRNPA1 / Fold change vs veh, HNRNPA1 / RFU, RNF170 / Fold change vs veh, RNF170 / RFU, ZNF28 / Fold change vs veh, ZNF28 / RFU, RNGTT / Fold change vs veh, RNGTT / RFU, OGT / Fold change vs veh, OGT / RFU, BRD1 / Fold change vs veh, BRD1 / RFU, MARS / Fold change vs veh, MARS / RFU, ZNF655 / Fold change vs veh, ZNF655 / RFU, FAHD1 / Fold change vs veh, FAHD1 / RFU, BDP1 / Fold change vs veh, BDP1 / RFU, LRRCC1 / Fold change vs veh, LRRCC1 / RFU, ARID1A / Fold change vs veh, ARID1A / RFU, ZNF146 / Fold change vs veh, ZNF146 / RFU, ZNF330 / Fold change vs veh, ZNF330 / RFU, GPN3 / Fold change vs veh, GPN3 / RFU, C9orf123 / Fold change vs veh, C9orf123 / RFU, N4BP2L2 / Fold change vs veh, N4BP2L2 / RFU, ARFIP1 / Fold change vs veh, ARFIP1 / RFU, FAM179B / Fold change vs veh, FAM179B / RFU, BCL10 / Fold change vs veh, BCL10 / RFU, UHRF1BP1L / Fold change vs veh, UHRF1BP1L / RFU, BET1 / Fold change vs veh, BET1 / RFU, CNOT2 / Fold change vs veh, CNOT2 / RFU, ZNF268 / Fold change vs veh, ZNF268 / Fold change vs veh, ZNF507 / RFU, DGCR2 / Fold change vs veh, DGCR2 / RFU, WDSUB1 / Fold change vs veh, WDSUB1 / Fold change vs veh, HSP90B1 /// MIR3652 / RFU, ADSS / Fold change vs veh, ADSS / RFU, GK / Fold change vs veh, GK / RFU, ZNF148 / Fold change vs veh, ZNF148 / RFU, TAF9 / Fold change vs veh, TAF9 / RFU, SLC1A5 / Fold change vs veh, SLC1A5 / RFU, SLMO2 / Fold change vs veh, SLMO2 / RFU, ABCC4 / Fold change vs veh, ABCC4 / RFU, LOC101060439 /// RAP1B / Fold change vs veh, LOC101060439 /// RAP1B / RFU, RFX7 / Fold change vs veh, RFX7 / RFU, GTPBP10 / Fold change vs veh, GTPBP10 / RFU, CNEP1R1 / Fold change vs veh, CNEP1R1 / RFU, BIVM-ERCC5 /// ERCC5 / Fold change vs veh, BIVM-ERCC5 /// ERCC5 / RFU, ILF3 / Fold change vs veh, ILF3 / RFU 11762660_at / Fold change /veh 11762660_at / RFU VCAN (11757783_s_at) / Fold change /veh VCAN (11757783_s_at) / RFU DDX43 (11728927_at) / Fold change /veh DDX43 (11728927_at) / RFU KRT8 (11758188_x_at) / Fold change /veh KRT8 (11758188_x_at) / RFU NKD1 (11759106_at) / Fold change /veh NKD1 (11759106_at) / RFU SRD5A1 (11742802_a_at) / Fold change /veh SRD5A1 (11742802_a_at) / RFU TPSAB1 /// TPSB2 (11721975_s_at) / Fold change /veh TPSAB1 /// TPSB2 (11721975_s_at) / RFU GSTM3 (11746129_a_at) / Fold change /veh GSTM3 (11746129_a_at) / RFU IL23R (11737362_x_at) / Fold change /veh IL23R (11737362_x_at) / RFU TMEM51 (11727254_a_at) / Fold change /veh TMEM51 (11727254_a_at) / RFU PIWIL2 (11732686_x_at) / Fold change /veh PIWIL2 (11732686_x_at) / RFU ORM1 (11744905_x_at) / Fold change /veh ORM1 (11744905_x_at) / RFU CCDC152 (11743942_at) / Fold change /veh CCDC152 (11743942_at) / RFU ECM1 (11717891_a_at) / Fold change /veh ECM1 (11717891_a_at) / RFU IL23R (11748794_a_at) / Fold change /veh IL23R (11748794_a_at) / RFU TNFAIP8L3 (11732012_x_at) / Fold change /veh TNFAIP8L3 (11732012_x_at) / RFU MBOAT4 (11741988_at) / Fold change /veh MBOAT4 (11741988_at) / RFU 11764193_at / Fold change /veh 11764193_at / RFU TMEM53 (11763286_at) / Fold change /veh TMEM53 (11763286_at) / RFU MAGEB2 (11727129_at) / Fold change /veh MAGEB2 (11727129_at) / RFU TMEM200A (11744735_a_at) / Fold change /veh TMEM200A (11744735_a_at) / RFU CCDC152 (11751479_a_at) / Fold change /veh CCDC152 (11751479_a_at) / RFU FAM211A (11726209_a_at) / Fold change /veh FAM211A (11726209_a_at) / RFU RGS16 (11746705_a_at) / Fold change /veh RGS16 (11746705_a_at) / RFU VCAN (11755009_s_at) / Fold change /veh VCAN (11755009_s_at) / RFU RHOB (11743442_s_at) / Fold change /veh RHOB (11743442_s_at) / RFU RGS16 (11720943_a_at) / Fold change /veh RGS16 (11720943_a_at) / RFU RGS16 (11720944_at) / Fold change /veh RGS16 (11720944_at) / RFU, VPS4B / Fold change vs veh, VPS4B / RFU, CREB1 / Fold change vs veh, CREB1 / RFU, DNAJC13 / Fold change vs veh, DNAJC13 / RFU, GNAQ / Fold change vs veh, GNAQ / RFU, CDK5R1 / Fold change vs veh, CDK5R1 / RFU, ZRANB3 / Fold change vs veh, ZRANB3 / RFU, CUL4A / Fold change vs veh, CUL4A / RFU, CCNY / Fold change vs veh, CCNY / RFU, UFL1 / Fold change vs veh, UFL1 / RFU, COG3 / Fold change vs veh, COG3 / RFU, DIAPH2 / Fold change vs veh, DIAPH2 / RFU, SKA2 / Fold change vs veh, SKA2 / RFU, AFF3 / Fold change vs veh, AFF3 / RFU, LMF1 / Fold change vs veh, LMF1 / RFU, IPO11 / Fold change vs veh, IPO11 / RFU, DFFB / Fold change vs veh, DFFB / RFU, FOXP1 / Fold change vs veh, FOXP1 / RFU, CARD8 / Fold change vs veh, CARD8 / RFU, STRN3 / Fold change vs veh, STRN3 / RFU, ADK / Fold change vs veh, ADK / RFU, RASSF2 / Fold change vs veh, RASSF2 / RFU, WIPF1 / Fold change vs veh, WIPF1 / RFU, LARP1B / Fold change vs veh, LARP1B / RFU, RASA1 / Fold change vs veh, RASA1 / RFU, RB1 / Fold change vs veh, RB1 / RFU, PPFIA1 / Fold change vs veh, PPFIA1 / RFU, MAT2A / Fold change vs veh, MAT2A / RFU, CCT5 / Fold change vs veh, CCT5 / RFU, WDR92 / Fold change vs veh, WDR92 / RFU, CUX1 / Fold change vs veh, CUX1 / RFU, TTC7A / Fold change vs veh, TTC7A / RFU, TMEM135 / Fold change vs veh, TMEM135 / RFU, DEPTOR / Fold change vs veh, DEPTOR / RFU, CPM / Fold change vs veh, CPM / RFU, DNAJB6 / Fold change vs veh, DNAJB6 / RFU, CACNA2D3 / Fold change vs veh, CACNA2D3 / RFU, DTX4 / Fold change vs veh, DTX4 / RFU, TFCP2 / Fold change vs veh, TFCP2 / RFU, GMCL1 /// GMCL1P1 / Fold change vs veh, GMCL1 /// GMCL1P1 / RFU, AEBP2 / Fold change vs veh, AEBP2 / RFU, SNHG1 /// SNORD22 /// SNORD25 /// SNORD26 /// SNORD27 /// SNORD28 /// SNORD29 /// SNORD31 / Fold change vs veh, SNHG1 /// SNORD22 /// SNORD25 /// SNORD26 /// SNORD27 /// SNORD28 /// SNORD29 /// SNORD31 / Fold change (Aza/veh), C12orf56 (ProbeSet 11735607_a_at) / Fold change (ACY-1035/veh), C12orf56 (ProbeSet 11735607_a_at) / Fold change (Aza/veh), FGFR1OP (ProbeSet 11751329_s_at) / Fold change (ACY-1035/veh), FGFR1OP (ProbeSet 11751329_s_at) / Fold change (Aza/veh), VPS36 (ProbeSet 11739960_a_at) / Fold change (ACY-1035/veh), VPS36 (ProbeSet 11739960_a_at) / RFU SYPL1 (11715823_x_at) / Fold change /veh SYPL1 (11715823_x_at) / RFU IGFBP7 (11715501_s_at) / Fold change /veh IGFBP7 (11715501_s_at) / RFU REEP3 (11722064_at) / Fold change /veh REEP3 (11722064_at) / RFU IGLL1 (11728026_x_at) / Fold change /veh IGLL1 (11728026_x_at): dose or concentration left out as unconfirmed",
  "conditions": "MV-4-11 cells, 48 hours",
  "data": [
    {"smiles": "Nc1ncn([C@@H]2O[C@H](CO)[C@@H](O)[C@H]2O)c(=O)n1", "note": "[azacitidine]", "values": [
      {"measurement": "Fold change /veh ID3 (11757404_x_at)", "result": 1.09}
    ]}
  ]
}
